# Where two headings read alike, the source gives them in different places.
# How the values were obtained:
# [1] = system: A. baumannii NCTC 13423; test: Antibacterial activity, pre-exposure; type: cell-based, Acinetobacter baumannii; conditions: for Average inhibition %, biofilms viability / Average inhibition %, planktonic cells viability / inhibition at 10 µM / inhibition at 15 µM / inhibition at 25 µM / inhibition at 50 µM: A. baumannii NCTC 13423, pre-exposure, ± SD; for inhibition at 10 µM / inhibition at 15 µM / inhibition at 25 µM / inhibition at 50 µM: Acinetobacter baumannii, NCTC13423
# Summary of the method: (§1)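 Bacteria and compound were co-incubated from the start for 18 h at 37 °C, 220 rpm. Planktonic cells scored by turbidity plus resazurin reduction; washed biofilms scored by 20 μM resazurin (30, 60, 90 min for S. aureus, A. baumannii, P. aeruginosa) and ethanol-fixed crystal violet staining.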
# [2] = system: S. aureus ATCC 25923; test: Antibacterial activity, pre-exposure (planktonic cells and biofilm formation); type: cell-based, Staphylococcus aureus; conditions: for MIC / inhibition at 5 µM / inhibition at 10 µM / inhibition at 15 µM / inhibition at 25 µM: Staphylococcus aureus, ATCC25923; for inhibition at 5 µM / inhibition at 10 µM / inhibition at 15 µM / inhibition at 25 µM / Average inhibition %, biofilms viability / Average inhibition %, planktonic cells viability: pre-exposure, ± SD
# Summary of the method: as §1
# [3] = system: P. aeruginosa ATCC 9027; test: Antibacterial activity, pre-exposure; type: cell-based, Pseudomonas aeruginosa; conditions: for Average inhibition %, biofilms viability / Average inhibition %, planktonic cells viability / inhibition at 50 µM / inhibition at 100 µM / inhibition at 150 µM / inhibition at 200 µM: P. aeruginosa ATCC 9027, pre-exposure, ± SD; for inhibition at 50 µM / inhibition at 100 µM / inhibition at 150 µM / inhibition at 200 µM: Pseudomonas aeruginosa, ATCC9027
# Summary of the method: as §1
# [4] = system: S. aureus ATCC 25923; test: Antibacterial activity, post-exposure on preformed 18-h-old biofilms; type: cell-based, Staphylococcus aureus; conditions: ± SD; for inhibition at 25 µM / inhibition at 50 µM / inhibition at 100 µM / inhibition at 200 µM: Staphylococcus aureus; for inhibition at 25 µM: ATCC25923, 25 µM; for inhibition at 50 µM: ATCC25923, 50 µM; for inhibition at 100 µM: ATCC25923, 100 µM; for inhibition at 200 µM: ATCC25923, 200 µM
# Summary of the method: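 Compounds were applied to preformed 18-h biofilms after medium change and left 24 h. Read-outs: planktonic OD plus resazurin fluorescence (20 μM), biofilm metabolic activity by resazurin 30 min at 37 °C, then biomass by crystal violet absorbance at 595 nm after ethanol fixation.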
# [5] = 10 µM, read-out: Average inhibition %, biofilms biomass
# [6] = 10 µM, read-out: Average inhibition %, planktonic cells turbidity
# [7] = 15 µM, read-out: Average inhibition %, biofilms biomass
# [8] = 15 µM, read-out: Average inhibition %, planktonic cells turbidity
# [9] = 25 µM, read-out: Average inhibition %, biofilms biomass
# [10] = 25 µM, read-out: Average inhibition %, planktonic cells turbidity
# [11] = 50 µM, read-out: Average inhibition %, biofilms biomass
# [12] = 50 µM, read-out: Average inhibition %, planktonic cells turbidity
# [13] = read-out: Average inhibition %, biofilms biomass
# [14] = read-out: Average inhibition %, planktonic cells turbidity
structure (smiles),measurement,setting,value
"CCCCCCCCCCOc1ccc(CCC(N)(CO)CO)cc1 [Compound 49, 2-Amino-2-[4-(decyloxy)phenethyl]propane-1,3-diol]","Average inhibition %, biofilms viability",[1]; 10 µM,0 ± 0%
same,"Average inhibition %, planktonic cells viability",[1]; 10 µM,12 ± 4.3%
same,"Average inhibition %, biofilms viability",[1]; 15 µM,0 ± 0%
same,"Average inhibition %, planktonic cells viability",[1]; 15 µM,8.5 ± 10.6%
same,"Average inhibition %, biofilms viability",[1]; 25 µM,0 ± 0%
same,"Average inhibition %, planktonic cells viability",[1]; 25 µM,2.6 ± 4.5%
same,"Average inhibition %, biofilms viability",[1]; 50 µM,9 ± 8.3%
same,"Average inhibition %, planktonic cells viability",[1]; 50 µM,0 ± 0%
same,inhibition at 10 µM,[1]; [5],0%
same,inhibition at 10 µM,[1]; [6],0%
same,inhibition at 15 µM,[1]; [7],1.5 ± 2.4%
same,inhibition at 15 µM,[1]; [8],0%
same,inhibition at 25 µM,[1]; [9],1.1 ± 1.9%
same,inhibition at 25 µM,[1]; [10],0%
same,inhibition at 50 µM,[1]; [11],4.1 ± 7.2%
same,inhibition at 50 µM,[1]; [12],1.2 ± 2.1%
same,MIC A. baumannii NCTC 13423,"[1]; pre-exposure, Inactive = no activity up to 50 μM, > = some inhibition but no MIC reached",Inactive
same,MIC,"[2]; lowest concentration with no visible growth (>90% inhibition of turbidity and viability of planktonic cells), 18 h, read-out: MIC S. aureus ATCC 25923",50 to 100 µM
same,inhibition at 5 µM,"[2]; 5 µM, read-out: Average inhibition %, biofilms biomass",21.1 ± 15.7%
same,inhibition at 5 µM,"[2]; 5 µM, read-out: Average inhibition %, planktonic cells turbidity",25 ± 31.1%
same,inhibition at 10 µM,[2]; [5],24.7 ± 21.7%
same,inhibition at 10 µM,[2]; [6],40.2 ± 21.5%
same,inhibition at 15 µM,[2]; [7],42.1 ± 13.8%
same,inhibition at 15 µM,[2]; [8],32.7 ± 33.7%
same,inhibition at 25 µM,[2]; [9],65 ± 8%
same,inhibition at 25 µM,[2]; [10],52 ± 35.7%
same,MIC,[2]; read-out: MIC (S. aureus),50 to 100 µM
same,"Average inhibition %, biofilms viability",[2]; 5 µM,21.8 ± 13.4%
same,"Average inhibition %, planktonic cells viability",[2]; 5 µM,5.8 ± 6.5%
same,"Average inhibition %, biofilms viability",[2]; 10 µM,19.2 ± 19.6%
same,"Average inhibition %, planktonic cells viability",[2]; 10 µM,16 ± 20.8%
same,"Average inhibition %, biofilms viability",[2]; 15 µM,34.9 ± 12.5%
same,"Average inhibition %, planktonic cells viability",[2]; 15 µM,6.5 ± 7.4%
same,"Average inhibition %, biofilms viability",[2]; 25 µM,46.4 ± 5.4%
same,"Average inhibition %, planktonic cells viability",[2]; 25 µM,34.4 ± 41.1%
same,"Average inhibition %, biofilms viability",[3]; 50 µM,1.1 ± 1%
same,"Average inhibition %, planktonic cells viability",[3]; 50 µM,11.2 ± 5%
same,"Average inhibition %, biofilms viability",[3]; 100 µM,1.4 ± 1.7%
same,"Average inhibition %, planktonic cells viability",[3]; 100 µM,11 ± 9.5%
same,"Average inhibition %, biofilms viability",[3]; 150 µM,1.8 ± 2.2%
same,"Average inhibition %, planktonic cells viability",[3]; 150 µM,10.3 ± 10.8%
same,"Average inhibition %, biofilms viability",[3]; 200 µM,4.2 ± 7.4%
same,"Average inhibition %, planktonic cells viability",[3]; 200 µM,8.8 ± 10.7%
same,inhibition at 50 µM,[3]; [11],5.1 ± 7.7%
same,inhibition at 50 µM,[3]; [12],11.2 ± 9.7%
same,inhibition at 100 µM,"[3]; 100 µM, read-out: Average inhibition %, biofilms biomass",2.5 ± 1.1%
same,inhibition at 100 µM,"[3]; 100 µM, read-out: Average inhibition %, planktonic cells turbidity",19.8 ± 7.4%
same,inhibition at 150 µM,"[3]; 150 µM, read-out: Average inhibition %, biofilms biomass",2.8 ± 4.2%
same,inhibition at 150 µM,"[3]; 150 µM, read-out: Average inhibition %, planktonic cells turbidity",11.4 ± 10.1%
same,inhibition at 200 µM,"[3]; 200 µM, read-out: Average inhibition %, biofilms biomass",2.2 ± 2.8%
same,inhibition at 200 µM,"[3]; 200 µM, read-out: Average inhibition %, planktonic cells turbidity",16.7 ± 3%
same,MIC P. aeruginosa ATCC 9027,"[3]; pre-exposure, Inactive = no activity up to 200 μM, > = some inhibition but no MIC reached",Inactive
same,"Average inhibition %, biofilms viability",[4]; 25 µM,23.1 ± 12%
same,"Average inhibition %, planktonic cells viability",[4]; 25 µM,0 ± 0%
same,"Average inhibition %, biofilms viability",[4]; 50 µM,31.6 ± 11.1%
same,"Average inhibition %, planktonic cells viability",[4]; 50 µM,0 ± 0%
same,"Average inhibition %, biofilms viability",[4]; 100 µM,30.4 ± 13.1%
same,"Average inhibition %, planktonic cells viability",[4]; 100 µM,6 ± 10.4%
same,"Average inhibition %, biofilms viability",[4]; 200 µM,18.9 ± 12.3%
same,"Average inhibition %, planktonic cells viability",[4]; 200 µM,24.6 ± 9.6%
same,inhibition at 25 µM,[4]; [13],46.2 ± 2.6%
same,inhibition at 25 µM,[4]; [14],1 ± 1.8%
same,inhibition at 50 µM,[4]; [13],41.6 ± 16.2%
same,inhibition at 50 µM,[4]; [14],6.6 ± 6.1%
same,inhibition at 100 µM,[4]; [13],47.3 ± 10.1%
same,inhibition at 100 µM,[4]; [14],18.3 ± 26.2%
same,inhibition at 200 µM,[4]; [13],41.4 ± 16.7%
same,inhibition at 200 µM,[4]; [14],45 ± 23.1%
